In US10174132B2, “Heparan sulfate synthesis” (UNIVERSITY OF GEORGIA RESEARCH FOUNDATION, INC., priority 2009, dated 2019):
Where a name gives a salt, the structure may show the parent alone. Read-outs that look alike come from different tables or passages of the source.

Target: T1, recombinant human BACE-1 (Homo sapiens, UniProt P56817)
T1 construct: purchased R & D Systems
Experiment: BACE-1 FRET peptide cleavage assay
Type: biochemical
Settings: FRET peptide with Swedish variant, 20 mM sodium acetate, 0.1% Triton-X-100, pH 4.5, 2 h, 25° C., triplicate
Method: The ability of the HS oligosaccharides to inhibit BACE-1 cleavage of APP was assessed using a fluorescent resonance energy transfer (FRET) peptide cleavage assay employing the Swedish amino acid variant FRET peptide 5-FAM-Glu-Val-Asn-Leu-Asp-Ala-Phe-Lys(QXL520)-OH. When intact, the amino terminal fluorophore is quenched, but upon enzymatic cleavage, it is released from quencher and fluoresces at 520 nm.
BACE inhibition assays: The ability of the compounds to inhibit BACE-1 cleavage of APP was assessed using a fluorescent resonance energy transfer (FRET) peptide cleavage assay employing the FRET peptide HiLyteFluor™488-Glu-Val-Asn-Leu-Asp-Ala-Glu-Phe-Lys(QXL520)-OH (Anaspec Inc, San Jose, Calif.), containing the Swedish amino acid variant. Assays were performed in triplicate in 96-well black plates (Greiner Bio-One Ltd) in a total volume of 100 μl of 20 mM sodium acetate, 0.1% Triton-X-100, pH 4.5 using 114 pmoles FRET peptide/well and 0.1 μg of recombinant human BACE-1 (R & D Systems; specific activity >3.5 pmol/min/μg). Inhibitors were added at 0.01 to 50 μg/mL and mixed with enzyme prior to addition of substrate. Appropriate controls for enzyme activity and background fluorescence were employed and plates were incubated (2 h, 25° C.) with reaction stopped by addition of 100 μl 2.5 M sodium acetate. Fluorescence 480ex/520em was measured on a Polarstar plate reader (BMG LabTechnologies, U.K.) and data were analyzed by plotting log concentration of inhibitor against percent inhibition and using a logistic sigmoidal curve fitting function using OriginPro 8 software (OriginLab Corporation, MA).

[1] = read-out: IC50 (μg/ml), inhibitory activity for cleavage of FRET peptide by BACE-1 (converted)
[2] = read-out: IC50 (μmol), inhibitory activity for cleavage of FRET peptide by BACE-1

T1 sequence (P56817 46-501): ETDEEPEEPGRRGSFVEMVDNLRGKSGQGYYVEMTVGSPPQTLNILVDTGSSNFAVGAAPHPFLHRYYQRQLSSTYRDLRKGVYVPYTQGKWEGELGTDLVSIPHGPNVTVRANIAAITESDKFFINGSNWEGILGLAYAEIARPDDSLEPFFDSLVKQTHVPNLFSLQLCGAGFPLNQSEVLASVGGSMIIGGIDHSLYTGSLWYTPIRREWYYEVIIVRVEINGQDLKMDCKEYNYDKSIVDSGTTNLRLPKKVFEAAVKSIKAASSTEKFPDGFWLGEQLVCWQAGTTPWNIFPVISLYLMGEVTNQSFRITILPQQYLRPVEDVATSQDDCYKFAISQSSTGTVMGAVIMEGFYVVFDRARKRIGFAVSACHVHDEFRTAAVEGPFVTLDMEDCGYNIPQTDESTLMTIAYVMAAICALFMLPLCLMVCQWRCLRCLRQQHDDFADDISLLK

Compound	IC50 [1] [µM]	IC50 [2] [µM]
NCCCCCOC1OC(COS(=O)(=O)O)C(OC2OC(C(=O)O)C(OC3OC(COS(=O)(=O)O)C(OC4OC(C(=O)O)C(OC5OC(COS(=O)(=O)O)C(OC6OC(C(=O)O)C(O)C(O)C6O)C(O)C5NS(=O)(=O)O)C(O)C4O)C(O)C3NS(=O)(=O)O)C(O)C2O)C(O)C1NS(=O)(=O)O [Compound 69, 5-aminopentyl [(β-D-glucopyranosyluronate)-(1→4)-(2-deoxy-2-sulfoamino-6-O-sulfonato-α-D-glucopyranoside)-(1→4)-O-(α-L-idopyranosyluronate)-(1→4)-O-(2-deoxy-2-sulfoamino-6-O-sulfanate-α-D-glucopyranoside)-(1→4)-(β-D-glucopyranosyluronate)]-(1→4)-O-2-deoxy-N-sulfoamino-6-O-sulfonate-α-D-glucopyranoside nonasodium salt]	40.1	36
CC(=O)NC1C(OC2C(C(=O)O)OC(OC3C(COS(=O)(=O)O)OC(OCCCCCN)C(NC(C)=O)C3O)C(O)C2O)OC(COS(=O)(=O)O)C(OC2OC(C(=O)O)C(O)C(O)C2O)C1O [Compound 76, 5-aminopentyl [(β-D-glucopyranosyluronate)-(1→4)-(2-acetamido-2-deoxy-6-O-sulfanate-α-D-glucopyranoside)-(1→4)-O-(β-D-glucopyranosyluronate-(1→4)-O-2-acetamido-2-deoxy-6-O-sulfanate-α-D-glucopyranosidetetrasodium salt]	38.2	35
CC(=O)NC1C(OC2C(C(=O)O)OC(OC3C(COS(=O)(=O)O)OC(OCCCCCN)C(NC(C)=O)C3O)C(O)C2O)OC(COS(=O)(=O)O)C(OC2OC(C(=O)O)C(O)C(O)C2O)C1O [Compound 78, 5-Aminopentyl[β-D-glucopyranosyluronate-(1→4)-(2-acetamido-2-deoxy-6-O-sulfonate-α-D-glucopyranoside)-(1→4)-α-L-idopyranosyluronate)]-(1→4)-2-acetamido-2-deoxy-6-O-sulfonate-α-D-glucopyranoside tetrasodium salt]	> 294	
CC(=O)NC1C(OC2C(C(=O)O)OC(OC3C(COS(=O)(=O)O)OC(OCCCCCN)C(NC(C)=O)C3O)C(O)C2O)OC(COS(=O)(=O)O)C(OC2OC(C(=O)O)C(O)C(O)C2O)C1O [Compound 80, 5-aminopentyl [(α-L-idopyranosyluronate)-(1→4)-O-(2-acetamido-2-deoxy-6-O-sulfonate-α-D-glucopyranoside)-(1→4)-O-(β-D-glucopyranosyluronate)]-(1→4)-(2-acetamido-2-deoxy-6-O-sulfonate-α-D-glucopyranosidetetrasodium salt]	102	94
CC(=O)NC1C(OC2C(C(=O)O)OC(OC3C(COS(=O)(=O)O)OC(OCCCCCN)C(NC(C)=O)C3O)C(O)C2O)OC(COS(=O)(=O)O)C(OC2OC(C(=O)O)C(O)C(O)C2O)C1O [Compound 82, 5-aminopentyl [(α-L-idopyranosyluronate)-(1→4)-(2-acetamido-2-deoxy-6-O-sulfonate-α-D-glucopyranoside)-(1→4)-O-(α-L-idopyranosyluronate-(1→4)-O-2-acetamido-2-deoxy-6-O-sulfonate-α-D-glucopyranosidetetrasodium salt]	34.2	32

Other lines, results leading:

IC50 [1] [µM]	IC50 [2] [µM]	Compound
> 272		CC(=O)NC1C(OC2C(C(=O)O)OC(OC3C(COS(=O)(=O)O)OC(OCCCCCN)C(NC(C)=O)C3O)C(OS(=O)(=O)O)C2O)OC(COS(=O)(=O)O)C(OC2OC(C(=O)O)C(O)C(O)C2O)C1O [Compound 84, 5-Aminopentyl [(α-L-idopyranosyluronate)-(1→4)-O-(2-acetamido-2-deoxy-6-O-sulfonate-α-D-glucopyranoside)-(1→4)-O-(2-O-sulfonato-α-L-idopyranosyl-uronate)]-(1→4)-2-deoxy-2-acetamido-6-O-sulfonate-α-D-glucopyranoside penta sodium salt]
152	138	CC(=O)NC1C(OC2C(C(=O)O)OC(OC3C(COS(=O)(=O)O)OC(OCCCCCN)C(NC(C)=O)C3O)C(OS(=O)(=O)O)C2O)OC(COS(=O)(=O)O)C(OC2OC(C(=O)O)C(O)C(O)C2O)C1O [Compound 85, 5-Aminopentyl [((3-D-glucopyranosyluronate)-(1→4)-O-(2-acetamido-2-deoxy-6-O-sulfonato-α-D-glucopyranoside)-(1→4)-O-(2-O-sulfonato-α-L-idopyranosyluronate)]-(1→4)-2-deoxy-2-acetamido-6-O-sulfonate-α-D-glucopyranosidepentasodium salt]
> 255		NCCCCCOC1OC(COS(=O)(=O)O)C(OC2OC(C(=O)O)C(OC3OC(COS(=O)(=O)O)C(OC4OC(C(=O)O)C(O)C(O)C4O)C(O)C3NS(=O)(=O)O)C(O)C2OS(=O)(=O)O)C(O)C1NS(=O)(=O)O [Compound 86, 5-Aminopentyl [(β-D-glucopyranosyluronate)-(1→4)-O-(2-deoxy-2-sulfamino-6-O-sulfonate-α-D-glucopyranoside)-(1→4)-O-(2-O-sulfonate-α-L-idopyranosyluronate)-(1→4)-2-deoxy-2-sulfoamino-6-O-sulfonate-α-D-glucopyranosideheptasodium salt]
